Test results from US20040110680A1, “Beta-alethine use in cell culture and therapy” (Regents of the University of New Mexico, priority 1990, published 2004).

Columns and labels:
[1] = The Merck Index, 9th edition (#221); cited from earlier work
NS-1 myeloma cells [2] = assay: NS-1 myeloma in inoculated mice, early intervention; type: in vivo
Excerpt: To assure NS-1 propagation in vivo it is essential to remove DMSO (the cryostatic agent dimethyl sulfoxide) through several medium changes and dilutions; this also serves to maintain the cells in log-phases growth. […] The mice were maintained with Wayne Rodent Blox (Wayne Research Animal Diets, Chicago, Ill., USA) ad lib. and tap water.
The inoculated mice were compared to a) untreated controls and b) to carrier-injected (saline-injected) controls.

NS-1 myeloma cells [3] = type: in vivo; conditions: single mouse, 100 μg/kg; tumor cells remained in skeletal muscle, subcutaneous tissue, a mammary gland
Method: NS-1 myeloma cells (ATCC TIB 18, P3/NS1/1-Ag4-1) were employed as inoculant; these cells have proven to be about 90% effective in establishing myelomas in mice according to the exemplified procedure, and the untreated myelomas are substantially fatal within about two weeks.
The cells were grown for several passages (preferably one week) in a sterile environment consisting of RPMI 1640 (Whittaker M. A. Bioproducts, Walkersville, Md., USA) containing 10% fetal calf serum (Hyclone Laboratories, Logan, Utah, USA), 2 mM L-glutamine, 5,000 units of penicillin, and 5 mg streptomycin in 75 cm^2 polystyrene tissue-culture flasks (Corning Glassworks, Corning, N.Y., USA) in a humidified chamber at 37° C. and under 6% CO2. To assure NS-1 propagation in vivo it is essential to remove DMSO (the cryostatic agent dimethyl sulfoxide) through several medium changes and dilutions; this also serves to maintain the cells in log-phases growth. […]
Wasting of the tumor and not the mouse proper was confirmed by weighing the debulked carcass. […] It was thus tentatively determined that the bone demineralized due to rapid growth of the tumor resulting in the fracture, a process which requires calcium and phosphate, and which would also explain the subsequent rapid extraskeletal deposition of calcium phosphate as the tumor was resorbed.

[4] = tested on: human peripheral blood leukocytes (HPBLs); assay: Non-antigen-specific immunoglobulin synthesis and secretion by HPBLs, protein-A facilitated plaque assay (Ig-PFC); type: cell-based
Excerpt: FIG. 2 illustrates data from a series of experiments designed to assess the effect of β-alethine on non-antigen-specific immunoglobulin synthesis and secretion in vitro by human peripheral blood leukocytes (HPBLs), generally characterized as a peripheral lymphoid organ primarily populated by medium-sized, mature lymphocytes. In these experiments, blood was taken from healthy male humans; the blood was then defibrinated on glass beads, and the leukocytes separated by centrifugation (buffy coat technique). Residual red blood cells were lysed with a brief treatment with 0.85% ammonium chloride. The leukocytes were counted and dispensed into 24 well tissue culture trays (LUX, Flow General, McClean, Md., USA) in 1 ml of RPMI 1640 basal medium supplemented with penicillin, streptomycin, 10% fetal calf serum, and L-glutamine. β-alethine was added to test cultures at various concentrations in 30 microliter doses. The cells were harvested as indicated in FIG. 2 at various times between 72 and 144 hours of culture and tested for antibody production using a conventional protein-A facilitated plaque assay (A-PFC or Ig-PFC). […] In addition, aliquots of cells were also tested for proliferation status by treating them with 0.5 μCi of tritiated thymidine (6-9 Ci/mole) followed by assessing the level of incorporation of radioactivity into newly synthesized DNA. […]

[5] = tested on: IMR-90 human fetal lung fibroblasts; assay: Maximum population doubling level (PDL) of IMR-90 fibroblasts, delay of cellular senescence; type: cell-based
Excerpt: This cell line is available from the American Type Culture Collection (ATCC, Bethesda, Md., USA) and is used as a standard for in vitro cellular senescence studies. Cellular senescence is loosely defined as those cellular process(es) that together result in the cell's inability to replenish itself in culture. This model represents aging processes in vivo, and cell lines developed from humans of different ages have PDL's in vitro which are inversely related to the chronological age of the donor. The IMR-90 cells depicted in FIG. 1 were grown under ideal conditions in McCoy's 5A synthetic medium supplemented with HEPES buffer at 10 mM; 100 units penicillin G/ml and 100 μg streptomycin/ml at standard concentrations; new born calf serum (NBCS) at 20% (V/V); and L-glutamine at 2 mM. The treated cell cultures were augmented with different concentrations of β-alethine (as indicated) dissolved in phosphate-buffered saline (PBS)—-always in a standard volume of 30 microliters per culture. […] The cells were then washed twice with the complete medium and counted in a double Neubauer hemacytometer; 2 million cells were aliquoted into a fresh tissue culture flask (T-75, polystyrene by LUX, Flow General, McClean, Md., USA) with 20 ml of fresh complete medium. […]

Murine hepatocytes = assay: Adaptation of culture-resistant hepatocytes to culture (colony count); type: cell-based, BALBc/J mice
Excerpt: FIG. 4 illustrates data from a single experiment designed to study the use of β-alethine for adapting cells to culture. The culture-resistant cells employed (hepatocytes) were taken from in vivo to in vitro growth. Murine hepatocytes were chosen owing to their being especially difficult to adapt to culture. […] In this experiment a single liver lobe from one of the BALBc/J mice was excised, pressed through a 90 mesh stainless steel screen, washed, and placed in T-25 tissue culture flasks (10 for LUX, Flow General, McClean, Md., USA). All cultures were maintained in 10 ml of the same medium as described in Example III (RPMI-1640 plus fetal calf serum plus pen/strep plus L-glutamine) and the test cultures exposed to various concentrations of β-alethine as indicated in FIG. 4. […] It was possible to obtain some viable colonies from the control cultures, but only if 10- to 20-fold higher initial cell concentrations were used; therefore the β-alethine was between 500- and 1000-fold more efficient in adapting murine hepatocytes to in vitro culture than control, i.e., saline-treated medium. […] The effect is again dose-dependent, as illustrated.

[6] = i.p., Monday, Wednesday, Friday from day 2 through day 47

Structure (SMILES): NCCC(=O)NCCS [β-aletheine]
- stability in air and aqueous solutions [1]: unstable in air and aqueous solutions

Structure (SMILES): NCCC(=O)NCCSSCCNC(=O)CCN [β-alethine, N,N′-bis-(β-alanyl-2-aminoethyl) Disulfide]
- deaths (NS-1 myeloma cells [2]; 10 pg/kg mouse): two deaths
- normal weight gain of the mice (NS-1 myeloma cells [2]; 10 μg/kg): not significantly
- persistence of the palpable tumor before regression (NS-1 myeloma cells [2]; 10 μg/kg, one mouse): 20 days
- normal weight gain of the mice (NS-1 myeloma cells [2]; 100 μg/kg): slightly inhibited
- fraction of animals that ultimately contracted tumor (NS-1 myeloma cells [2]; at about 10 pg/kg or 1 ng/kg, without treatment 75% euthanized or died): one-third to two-thirds
- mice developing a palpable tumor (NS-1 myeloma cells [2]; at about 10 μg/kg or 100 μg/kg): only one mouse developed a palpable tumor
- therapeutic minimal threshold (lower end of effective range) for preventing onset of NS-1 myeloma (NS-1 myeloma cells [2]; [6]): 10 pg/kg mouse
- upper end of effective concentration range for preventing onset of NS-1 myeloma (NS-1 myeloma cells [2]; [6]): 100 μg/kg mouse
- morphology of tumors developing under therapy (NS-1 myeloma cells [2]; untreated controls typically developed ascites): with few exceptions solid masses
- tumor cells in remaining organs (histology) (NS-1 myeloma cells [3]): none of the remaining organs contained tumor cells
- optimal concentration for immunoglobulin production ([4]; HPBLs): about 5 nanograms/ml culture
- immunoglobulin production relative to untreated control ([4]; dose-dependent, 72 to 144 hours of culture): approximately 60 times the untreated control levels
- increase in cell number (biomass) ([5]; absolute terms, factor of 2 raised to the power 55): 3.6×10^16 fold
- life expectancy of the cells ([5]; augmentation of growth versus untreated cells): doubling of the life expectancy
- colonies of hepatocytes observed (Murine hepatocytes; 10 ng/ml, no colonies in the control culture): approximately 50 colonies
- stability of treated cells in culture (Murine hepatocytes; long-term culture, in contrast to control cells): stable in culture
